Measured values from patent US9387213B2, “Small molecules inhibiting oncoprotein Myc” (Health Research, Inc., priority 2012, dated 2016).

Experiments:
[1] = system: SK-Mel-19; test: Suppression of proliferation / senescence induction in melanoma line; assay type: cell-based; conditions: Homo sapiens, SK-MEL19
Description: (§1) 260 analogs of N77A7 were selected from several commercially available libraries of small molecules based on the structural similarities with N77A7. The compounds were screened for the ability to permanently suppress proliferation and induce senescence in cells from melanoma lines SK-Mel-19 and SK-Mel-103. Based on the above-described screening procedure, seven small molecules were identified as having IC50 values lower than that of N77A7.

[2] = system: SK-Mel-103; test: as above; assay type: cell-based; conditions: Homo sapiens
Description: as §1

[3] = in vitro; conditions: microsomes, pH 7.4; for Percent Remaining 0 min: 0 h; for Percent Remaining 0 min / Percent Remaining 10 min / Percent Remaining 20 min / Percent Remaining 30 min / Percent Remaining 60 min: 1 μM; for Percent Remaining 30 min: 0.5 h; for Percent Remaining 60 min: 1 h
Method: Additionally, several of the N77A7 analogs were subjected to the test for the metabolic stability in human and mouse liver microsomes. Briefly, 1 μM of test compound was incubated with microsomal protein (human liver microsomes: 0.5 mg/mL; mouse liver microsomes 0.5 mg/mL) and buffer (100 mM potassium phosphate, pH 7.4, 5 mM magnesium chloride). The positive control was 5 μM testosterone. The reaction was equilibrated at 37 C in a shaking water bath for 3 to 5 minutes. After equilibration, an aliquot was removed and combined with 50/50 acetonitrile/water containing 0.1% formic acid and internal standard to terminate the reaction. 1 mM NADPH was immediately added and the tube was returned to the water bath. Five sample time points were taken (0, 10, 20, 30, and 60 minutes). Aliquots were removed and combined with 50/50 acetonitrile/water containing 0.1% formic acid and internal standard to terminate the reaction. The samples were mixed for 10 minutes and centrifuged. The supernatant from each sample was diluted (if necessary) and then transferred to vials for analysis by LC-MS/MS for the test compound and internal standard without calibration standards. The percent remaining at each time point was determined by the test compound's peak area response ratio versus the 0 minute sample.

[4] = system: HO-null cells; test: Secondary filter for Myc specificity: cell growth inhibition, methylene blue staining; assay type: cell-based; conditions: Rattus norvegicus, 72 h, read-out: ID50 HO-null
Method: (§2) FIG. 4 illustrates the myc specificity of tested compounds. Rat1a cells expressing c-myc, L-myc or N-myc or lacking any Myc (null) were treated for 72 h with a range of hit compound concentrations. The cells were then fixed and stained with methylene blue and the percentage of cells in the presence of compound compared to DMSO only control was calculated.
(§3) Validated hits were divided into classes when two or more compounds shared significant structural similarity. The ID50 for N-myc transactivation (the inhibitory dose resulting in 50% decrease in luciferase activity) for each hit was calculated from the dose-response N-myc responsive reporter assay. Compounds within each class were ranked by their ID50 for N-myc transactivation and the best compounds within each class were chosen for further studies. In addition, the best of the structurally unique compounds were also analyzed. A total of 46 hits were passed through a secondary filter designed to determine the specificity of the hits for Myc proteins. For this filter, we used a panel of cell lines derived from Rat1a cells (kindly provided by Michael Cole, Dartmouth University): HO-null-c-Myc deficient cells due to homologous recombination that express neither N-myc nor L-myc HO-c-Myc, HO-L-myc and HO-N-myc derived by retroviral transduction of the corresponding Myc genes into HO-null cells. Since each cell line expresses only a single Myc or no Myc family members, we could identify compounds that act through Myc family members as well as which Myc family members. […] The 18 Myc-specific compounds identified during the screening and filtering process are presented in Table 1 and represent distinct classes of molecules, including pyrazoles (e.g., N147A7, N47E10, N147G5), tetrazoles (e.g., N77A7) and 3-bromophenol (e.g., N4G6).

[5] = system: HO-c-Myc cells; test: as above; assay type: cell-based, rat
Method: as §2, §3

[6] = system: HO-N-myc cells; test: as above; assay type: cell-based, rat
Method: as §2, §3

[7] = system: panel of tumor cell lines, including neuroblastoma and melanoma; test: Effect of Myc inhibitors against panel of tumor cell lines, growth/viability by MTS and resazurin; assay type: cell-based, human; conditions: neuroblastoma lines IMR32, NBL-WN, 72 h
Method: FIG. 6 illustrates putative Myc inhibitors that are efficacious against tumor but not normal cells. Melanocytes and melanoma (#3 and #10) (A) and neuroblastoma (B) were incubated in the continuous presence of Myc inhibitors for 72 h and cell growth/viability determined by standard MTS and resazurin methods, respectively. Data for three hits is presented as a percent of DMSO vehicle control.

IC50 [1] [µM]	IC50 [2] [µM]	Percent Remaining 0 min ([3]; human) [%]	Percent Remaining 10 min ([3]; human) [%]	Percent Remaining 20 min ([3]; human) [%]	Percent Remaining 30 min ([3]; human) [%]	Percent Remaining 60 min ([3]; human) [%]	half-life at 1 µM ([3]; human) [min]	microsomal CLint at 1 μM ([3]; human) [µL/min/mg]	Percent Remaining 0 min ([3]; mouse) [%]	Percent Remaining 10 min ([3]; mouse) [%]	Percent Remaining 20 min ([3]; mouse) [%]	Percent Remaining 30 min ([3]; mouse) [%]	Percent Remaining 60 min ([3]; mouse) [%]	half-life at 1 µM ([3]; mouse) [min]	microsomal CLint at 1 μM ([3]; mouse) [µL/min/mg]	SMILES	further results
0.35	0.25	100	49	31	18	6.9	11.5	120	100	20	8.9	4.3	1.2	4.6	300	CCN(CC)Cc1c(C(=O)N/N=C/c2ccc(N(CC)CC)cc2O)nnn1-c1nonc1N [Compound 6]	
0.35	0.25	100	46	25	20	11	10.7	130	100	26	7.1	3.8	1.4	5.2	270	CCCN(CCC)Cc1c(C(=O)N/N=C/c2ccc(N(CC)CC)cc2O)nnn1-c1nonc1N [Compound 7]	
																COCc1cc(CN(C)C2CCCCC2)c(O)c2ncccc12 [Compound N269D8]	IC50 [4]: 4.52 µM; Myc Index C ([5]; ID50 in HO-null cells divided by ID50 in HO-c-myc cells): 6.3; IC50 ([5]; Rattus norvegicus, cell growth inhibition, 72 h, methylene blue, read-out: ID50 HO-c-myc): 0.72 µM; Myc Index N ([6]; ID50 in HO-null cells divided by ID50 in HO—N-myc cells): 5.3; IC50 ([6]; Rattus norvegicus, cell growth inhibition, 72 h, methylene blue, read-out: ID50 HO—N-myc): 0.85 µM; toxicity to N-myc amplified lines versus SH-EP cells [7]: more toxic to the N-myc amplified cell lines, IMR32 and NBL-WN than to SH-EP cells
